Data set [1] addresses T1, Aβ(1-40) (Homo sapiens, UniProt P05067).
T1 construct: […]; purchased Bachem, Torrance, Calif
Briefly: BASSR (Beta-Amyloid Self-Seeding Radioassay), inhibitors of self-seeded amyloid fibril growth. It counts as biochemical. As to conditions: 30 μM soluble Aβ(1-40) + 125I-labeled Aβ(1-40), 37° C., 3 to 5 hours; replicate values; letter = synthetic lot; ppt = precipitate; V-shaped = inhibition followed by precipitation. An outline of the steps:
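Self-seeded growth of ^125I-labeled Aβ(1-40) fibrils in 50 mM sodium phosphate pH 7.5, 100 mM NaCl, 0.02% NaN3, 1 M urea; compound (3-fold dilutions from 100 μM final) preincubated 10 min on ice, then 3–5 h at 37° C. Fibrils collected by vacuum filtration on 0.2 μm filters and counted for radioactivity.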

Data set [2] has as its target T1, Aβ(1-40). Briefly: BASST (Beta-Amyloid Self-Seeding, Thioflavin T), inhibitors of self-seeded amyloid fibril growth. To be noted: 30 μM soluble Aβ(1-40), 37° C., 3 to 5 hours, thioflavin T fluorescence; replicate values; letter = synthetic lot; read-out: BASST (IC50 = μM). The format is biochemical. An outline of the steps:
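Self-seeded Aβ(1-40) fibril growth was run in 50 mM sodium phosphate pH 7.5, 100 mM NaCl, 0.02% NaN3, 1 M urea. Compounds were tested in 3-fold serial dilutions (top 100 μM final): 10 min on ice, then 3–5 h at 37 °C. Fibrils were read by 5 μM thioflavin T fluorescence (ex 440/em 485 nm).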

A further data set deals with T2, Aβ (1-42) (Homo sapiens, UniProt P05067).
T2 construct: Required Aβ (1-42) (California Peptide) was dried from its hexafluoroisopropanol (HFIP) stock solution; purchased California Peptide
T2 sequence (P05067 672-713 limits assumed): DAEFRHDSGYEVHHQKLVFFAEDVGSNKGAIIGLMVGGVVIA
In words: BATYM assay (Aβ (1-42) aggregation, Thioflavin T fluorescence). The format is biochemical. To be noted: Aβ 1-42 final concentration 100 μM, 37° C., 1 day, letter = synthetic lot. An outline of the steps: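 Aβ (1-42) (100 μM final, PBS pH 7.4 from DMSO) incubated with compound at 37° C. for 1 day. Aggregation read by ThT (30 μM, glycine-NaOH pH 8.5) fluorescence, ex 440/em 485 nm; inhibition as fluorescence reduction corrected for compound-alone signal, IC50 by curve fitting from two experiments in triplicate.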

In another data set the target is T3, Aβ (1-40) peptide (Homo sapiens, UniProt P05067).
T3 construct: 10 μL 0.5 mg/mL Aβ (1-40) peptide in 20% HFIP
T3 sequence (P05067 672-711 limits assumed): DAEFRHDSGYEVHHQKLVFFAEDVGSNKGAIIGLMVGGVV
In words: BAPA (Beta-Amyloid Peptide Aggregation, pH 6.0, filtration). The format is biochemical. To be noted: Aβ (1-40) 33 μM, pH 6.0, 2 to 4 hours at room temperature; replicate values; letter = synthetic lot. An outline of the steps:
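Aggregation of human Aβ (1-40) peptide was measured in an endpoint filtration assay. The peptide was first reduced to monomer with hexafluoroisopropanol (HFIP), then used at 33 μM so it would aggregate at pH 6.0, and incubated for 2 to 4 hours at room temperature. Filter plates were washed with 100 μL phosphate buffer, impregnated with Meltilex, and counted on a Microbeta counter with background correction.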

“And” between values parts separate entries of the source, which are not always exact repeats. Equal values may be shown once.

IC50 and melting point data for 21 compounds are collected here from patent publication US6972287B1, “Method of inhibiting amyloid protein aggregation and imaging amyloid deposits” (Pfizer Inc., priority 1999, dated 2005).

T1 sequence (P05067 672-711 limits assumed): as above

Consider `O=C(O)c1ccccc1Nc1ccc(CCc2ccccc2O)cc1` [Example 127, 2-{4-[2-(2-Hydroxy-phenyl)-ethyl]-phenylamino}-benzoic acid], for which the melting point fell in the range of 218 to 219 °C. Also, the IC50 on Aβ(1-40) [1] is over 100 µM. Moreover, the IC50 at Aβ(1-40) [2] stood at 10 µM. This compound gave an IC50 on Aβ (1-42) of over 100 µM. The IC50 on Aβ (1-40) peptide stood at 67 µM.
The compound `O=C(O)c1ccccc1Nc1ccc(CCc2ccccc2)cc1` [Example 70, 2-(4-Phenethyl-phenylamino)-benzoic acid] registered a melting point of 173 to 182 °C. Also, the IC50 at Aβ(1-40) [1] worked out at 20 µM. At Aβ(1-40) [2], the IC50 turned out to be 10 µM. Further, the IC50 on Aβ (1-42) is over 100 µM. This compound returned an IC50 against Aβ (1-40) peptide of 65 µM.
In the case of `O=C(O)c1ccccc1Nc1ccc(CCc2ccc(O)c(O)c2)cc1` [Example 4, 2-{4-[2-(3,4-Dihydroxy-phenyl)-ethyl]-phenylamino}benzoic acid], the melting point fell in the range of 215 to 217 °C. Moreover, the IC50 at Aβ(1-40) [1] was 30 µM and > 100 µM. Further, the IC50 at Aβ(1-40) [2] was 3 µM and 4 µM and 8 µM. In addition, the IC50 against Aβ (1-42) was 26.3 µM and 30.7 µM. The compound further yielded a concentration for half-maximal inhibition (IC50) against Aβ (1-40) peptide of 67 µM.
`O=C(O)c1ccccc1Nc1ccc(CCc2ccc(F)c(F)c2)cc1` [Example 122, 2-{4-[2-(3,4-Difluoro-phenyl)-ethyl]-phenylamino}-benzoic acid] showed a melting point of 184 to 185 °C. Also, the IC50 on Aβ(1-40) [1] was over 100 µM. For the same compound, the IC50 on Aβ(1-40) [2] stood at 2 µM. The same compound returned an IC50 on Aβ (1-42) of over 100 µM. At Aβ (1-40) peptide, this compound returned an IC50 of over 60 µM.
`COc1ccc(CCc2ccc(Nc3ccccc3C(=O)O)cc2)c(OC)c1` [Example 125, 2-{4-[2-(2,4-Dimethoxy-phenyl)-ethyl]-phenylamino}-benzoic acid]: the melting point lay in the range of 180 to 181 °C. The IC50 at Aβ(1-40) [1] turned out to be 82 µM. For the same compound, the half-inhibitory concentration (IC50) on Aβ(1-40) [2] turned out to be 10 µM. On Aβ (1-42), this compound yielded an IC50 of over 100 µM. The compound also registered an IC50 against Aβ (1-40) peptide of 80 µM.
Compound `O=C(O)c1cc([N+](=O)[O-])ccc1Nc1ccc(CCc2ccc(F)c(C(F)(F)F)c2)cc1` [Example 69, 2-{4-[2-(4-Fluoro-3-trifluoromethyl-phenyl)-ethyl]-phenylamino}-5-nitro-benzoic acid] returned a melting point of 190 to 193 °C. Moreover, the IC50 on Aβ(1-40) [1] was 2 µM and 3.5 µM. Also, at Aβ(1-40) [2], the IC50 amounted to 0.8 µM. Further, the IC50 against Aβ (1-42) is 11.7 µM. This compound registered an IC50 at Aβ (1-40) peptide of 58 µM.
As to `O=C(O)c1ccccc1Nc1ccc(CCc2ccccc2Cl)cc1` [Example 126, 2-{4-[2-(2-Chloro-phenyl)-ethyl]-phenylamino}-benzoic acid], the melting point lay in the range of 140 to 143 °C. Besides, the IC50 on Aβ(1-40) [1] was > 100 µM (2×) and 30 µM. The IC50 on Aβ(1-40) [2] is 4 µM (2×) and 5 µM and 10 µM. Further, the IC50 at Aβ (1-42) was 84 µM and 73.9 µM. The IC50 on Aβ (1-40) peptide was 63 µM and > 60 µM.
Compound `Cl.O=C(O)c1ccccc1Nc1ccc(CCc2cccc(N3CCCCC3)c2)cc1` [Example 42, 2-{4-[2-(3-Piperidin-1-ylphenyl)ethyl]phenylamino}benzoic acid monohydrochloride] registered a melting point of 187 to 193 °C. For the same compound, the IC50 on Aβ(1-40) [1] is over 100 µM. The IC50 on Aβ(1-40) [2] was determined as 2 µM. On Aβ (1-42), this compound came in with a half-maximal inhibitory concentration (IC50) of 55.6 µM. The same compound gave an IC50 on Aβ (1-40) peptide of 30 µM.
As for `O=C(O)c1ccccc1Nc1ccc(CCc2cccc(N(Cc3ccccc3)Cc3ccccc3)c2)cc1` [Example 31, 2-{4-[2-(3-Dibenzylaminophenyl)ethyl]phenylamino}benzoic acid], the melting point was 95.5 to 97.5 °C. Further, the IC50 at Aβ(1-40) [1] was over 100 µM. At Aβ(1-40) [2], the IC50 came out at 1 µM. Also, at Aβ (1-42), the IC50 was found to be 22.6 µM. This compound also returned an IC50 on Aβ (1-40) peptide of 86 µM.
In turn, `COc1cc(Nc2ccc(CCc3ccc(Cl)c(Cl)c3)cc2)c(C(=O)O)cc1[N+](=O)[O-]` [Example 3, 2-{4-[4-(3,4-Dichloro-phenyl)-ethyl]phenylamino}-4-methoxy-5-nitrobenzoic acid] returned a melting point of 208 to 209 °C. For the same compound, the IC50 at Aβ(1-40) [1] was 4.5 µM and 5 µM (3×) and 15 µM. Further, the IC50 at Aβ(1-40) [2] is 2 µM and 3 µM. Also, the IC50 against Aβ (1-42) turned out to be 11.7 µM. Besides, on Aβ (1-40) peptide, the IC50 was over 60 µM.
`Nc1ccc(Nc2ccc(CCc3ccc(Cl)c(Cl)c3)cc2)c(C(=O)O)c1` [Example 64, 5-Amino-2-{4-[2-(3,4-Dichloro-phenyl)-ethyl]-phenylamino}-benzoic acid] displayed a melting point of 137 to 142 °C. Also, the IC50 on Aβ(1-40) [1] is over 100 µM. The 50% inhibitory concentration (IC50) at Aβ(1-40) [2] is 5 µM. The compound further had an IC50 against Aβ (1-42) of 35 µM. At Aβ (1-40) peptide, the IC50 is over 100 µM.
For the compound `CS(=O)(=O)NC(=O)c1ccccc1Nc1ccc(CCCc2ccc(Cl)c(Cl)c2)cc1` [Example 60, N-(2-{4-[3-(3,4-Dichloro-phenyl)-propyl]-phenylamino}-benzoyl)-methanesulfonamide], the melting point is 53 to 61 °C. The IC50 at Aβ(1-40) [1] is over 100 µM. Also, the 50% inhibitory concentration (IC50) on Aβ(1-40) [2] came out at 3 µM. The same compound displayed an IC50 on Aβ (1-42) of 40.7 µM. Besides, the IC50 against Aβ (1-40) peptide amounted to 8 µM.
Turning to `O=C(O)c1ccccc1Nc1ccc(-c2ccc(Cl)c(Cl)c2)cc1` [Example 18, 2-[4-(3,4-Dichlorophenyl)phenylamino]benzoic acid], the melting point is over 220 °C. In addition, the 50% inhibitory concentration (IC50) at Aβ(1-40) [1] is over 100 µM. Moreover, on Aβ(1-40) [2], the IC50 was 30 µM and > 100 µM. Also, the IC50 against Aβ (1-42) was over 100 µM. At Aβ (1-40) peptide, the IC50 was 9 µM and > 40 µM and 53 µM and 12 µM.
Compound `O=C(O)c1ccccc1Nc1ccc(CCc2cc(Cl)cc(Cl)c2)cc1` [Example 81, 2-{4-[2-(3,5-Dichloro-phenyl)-ethyl]-phenylamino}-benzoic acid] yielded a melting point of 191 to 194 °C. Also, the IC50 on Aβ(1-40) [1] was over 100 µM. In addition, at Aβ(1-40) [2], the IC50 was determined as 15 µM. The same compound displayed an IC50 against Aβ (1-42) of 48.4 µM. At Aβ (1-40) peptide, this compound returned an IC50 of 73 µM.
Regarding `O=C(O)c1cc([N+](=O)[O-])ccc1Nc1ccc(CCc2cccc(C(F)(F)F)c2Cl)cc1` [Example 63], the melting point fell in the range of 207 to 209 °C. For the same compound, the IC50 on Aβ(1-40) [1] was 15 µM (2×) and 18 µM. Moreover, on Aβ(1-40) [2], the IC50 stood at 1 µM. The compound further came in with an IC50 against Aβ (1-42) of 9.43 µM. In addition, at Aβ (1-40) peptide, it took 45 µM to reach half-maximal inhibition (IC50).
`O=C(O)c1cc([N+](=O)[O-])ccc1Nc1ccc(CCc2ccc(Cl)cc2)cc1` [Example 74, 2-{4-[2-(4-Chloro-phenyl)-ethyl]-phenylamino}-5-nitro-benzoic acid] returned a melting point of 210 to 212 °C. In addition, the IC50 at Aβ(1-40) [1] was 6 µM and 18 µM (2×) and 19 µM. Moreover, the concentration for half-maximal inhibition (IC50) on Aβ(1-40) [2] is 0.3 µM and 0.5 µM. This compound had an IC50 against Aβ (1-42) of 8.36 µM. Also, the IC50 on Aβ (1-40) peptide was over 60 µM.
In the case of `O=C(O)c1cc([N+](=O)[O-])ccc1Nc1ccc(CCCCCc2ccc(Cl)c(Cl)c2)cc1` [Example 13, 2-{4-[5-(3,4-Dichlorophenyl)pentyl]phenylamino}-5-nitrobenzoic acid], the melting point was in the range of 147 to 148 °C. Besides, the IC50 on Aβ(1-40) [1] was 21 µM and > 100 µM (2×) and 20 µM and 15 µM. The IC50 at Aβ(1-40) [2] was 0.9 µM. The compound further returned a half-inhibitory concentration (IC50) against Aβ (1-42) of 6.41 µM. Moreover, the IC50 on Aβ (1-40) peptide came to 6 µM.
`CCNc1ccc(CCCc2ccc(Nc3ccccc3C(=O)O)cc2)cc1` [Example 29, 2-{4-[3-(4-Ethylaminophenyl)propyl]phenylamino}benzoic acid] displayed a melting point of 133 °C. For the same compound, the IC50 at Aβ(1-40) [1] was over 100 µM. Also, the IC50 at Aβ(1-40) [2] turned out to be 4 µM. On Aβ (1-42), this compound gave an IC50 of 38.1 µM. Moreover, the half-inhibitory concentration (IC50) on Aβ (1-40) peptide turned out to be 30 µM.
With `Nc1cccc(CCc2ccc(Nc3ccccc3C(=O)O)cc2)c1` [Example 33, 2-{4-[2-(3-Aminophenyl)ethyl]phenylamino}benzoic acid], the melting point fell in the range of 182 to 184 °C. For the same compound, the IC50 on Aβ(1-40) [1] was over 100 µM. For the same compound, the half-inhibitory concentration (IC50) at Aβ(1-40) [2] was over 100 µM. At Aβ (1-42), the IC50 was over 100 µM. The same compound returned an IC50 against Aβ (1-40) peptide of over 10 µM.
Take `CCCN(CCC)c1cccc(CCc2ccc(Nc3ccccc3C(=O)O)cc2)c1.Cl` [Example 37, 2-{4-[2-(3-Dipropylaminophenyl)ethyl]phenylamino}benzoic acid monohydrochloride]: the melting point was 189 to 193 °C. Besides, the IC50 at Aβ(1-40) [1] was over 100 µM. Besides, the IC50 at Aβ(1-40) [2] worked out at 0.8 µM. On Aβ (1-42), this compound came in with a 50% inhibitory concentration (IC50) of 30.2 µM. In addition, half-maximal inhibition against Aβ (1-40) peptide (IC50) was put at 25 µM.
The corresponding values for `O=C(O)c1ccccc1Nc1ccc(CCCc2ccc([N+](=O)[O-])cc2)cc1` [Example 20, 2-{4-[3-(4-Nitrophenyl)propyl]phenylamino}benzoic acid] are 150 to 153 °C, 4.2 µM, 6 µM, 68.6 µM and 22 µM.
